Source: patent US20190185479A1, “BICYCLIC NITROGENATED HETEROCYCLIC COMPOUND” (MITSUBISHI TANABE PHARMA CORPORATION, priority 2016, published 2019)

Tests used:
Assay type in all cases: biochemical
[1] = biological target: hPDE10A (Homo sapiens, UniProt Q9Y233); experiment: PDE10 inhibition assay (IC50), Experimental Example 3; conditions: for IC50: hPDE10A, read-out: PDE inhibition assay IC50, PDE10; for inhibition at 10 µM: at 10 μmol/L; for inhibition at 10 µM / inhibition at 100 µM: read-out: inhibition rate (%) at prescribed concentration, PDE10; for inhibition at 100 µM: at 100 μmol/L
Procedure: PDE7 inhibitory assay was carried out by reacting the mixture of a compound, hPDE7B, and cAMP, and measuring the residual cAMP by a detection method using LANCE (registered trademark) Ultra cAMP Detection Kit (ParkinElmer). The compound was dissolved in DMSO, and diluted so that the concentration would become 50 times of the final concentration. The hPDE7B and cAMP were diluted with an assay buffer (50 mmol/L Tris-HCl, 1 mmol/L MgCl2, 0.1% BSA, 0.5 mmol/L DTT, pH7.5) so that the hPDE7B would have an appropriate enzyme activity and the concentration of cAMP would become 6 nmol/L. To a 96 well plate were added the compound (2 μL) (DMSO final concentration: 2%), hPDE7B (48 μL), and cAMP (50 μL) (concentration at the reaction: 3 nmol/L), and the resulting mixture was reacted at room temperature for 60 minutes. The reaction solution (20 μL) was subjected to a TR-FRET method according to the protocol specified by the kit to measure the concentration of the residual cAMP. In the assay, to a tracer solution specified by the kit was added 0.5 mmol/L of 3-isobutyl-1-methylxanthine (IBMX, nonselective PDE inhibitor) in order to stop the PDE enzyme reaction after the completion of reaction until the measurement.
The prediction of PDE7 selectivity was evaluated by comparing each IC50 value of a compound against PDE4, 8, and 10 with the IC50 value of said compound against PDE7B.
hPDE4D, hPDE8B, and hPDE10A were prepared by the same method as [Method for preparing samples 2].
PDE4, 8, and 10 inhibitory assays were carried out by the same method as [Assay procedure 1].
The reaction without a compound wad defined as “0% inhibition”, the reaction without each PDE was defined as “100% inhibition”, and the calculation of IC50 value was carried out by the same method as <Method for data calculation 1>.

[2] = biological target: T1, hPDE4D (Homo sapiens, UniProt Q08499); experiment: PDE4 inhibition assay (IC50), Experimental Example 3; conditions: for IC50: hPDE4D, read-out: PDE inhibition assay IC50, PDE4; for inhibition at 10 µM: at 10 μmol/L, read-out: inhibition rate (%) at prescribed concentration, PDE4
T1 construct: purchased SB Drug Discovery
Outline: (§1)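 Recombinant human enzymes incubated with compound and 3 nmol/L cAMP (final) in Tris-HCl pH 7.5 buffer with MgCl2, BSA, DTT, 2% DMSO final, 60 min at room temperature. Residual cAMP measured by TR-FRET (LANCE Ultra), reaction stopped with 0.5 mmol/L IBMX. IC50 from inhibition relative to no-compound (0%) and no-enzyme (100%) controls.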

[3] = biological target: T2, Human PDE7B (hPDE7B) (Homo sapiens, UniProt Q9NP56); experiment: Measurement of PDE7 inhibitory activity (Experimental Example 1; residual cAMP, LANCE Ultra cAMP TR-FRET); conditions: cAMP 3 nmol/L, room temperature 60 minutes
T2 construct: made in house; host or cells: COS-7 cells
Outline: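 hPDE7B from transfected COS-7 cells reacted with 3 nmol/L cAMP (final) and compound (2% DMSO) in 50 mmol/L Tris-HCl pH 7.5, 1 mmol/L MgCl2, 0.1% BSA, 0.5 mmol/L DTT, 60 min at room temperature. Reaction stopped with IBMX; residual cAMP measured by TR-FRET. Inhibition scaled between no-compound and no-enzyme controls.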

[4] = biological target: T3, hPDE8B (Homo sapiens, UniProt O95263); experiment: PDE8 inhibition assay (IC50), Experimental Example 3; conditions: for IC50: hPDE8B, read-out: PDE inhibition assay IC50, PDE8
T3 construct: purchased SB Drug Discovery
Outline: as §1

T1 sequence (Q08499 whole entry): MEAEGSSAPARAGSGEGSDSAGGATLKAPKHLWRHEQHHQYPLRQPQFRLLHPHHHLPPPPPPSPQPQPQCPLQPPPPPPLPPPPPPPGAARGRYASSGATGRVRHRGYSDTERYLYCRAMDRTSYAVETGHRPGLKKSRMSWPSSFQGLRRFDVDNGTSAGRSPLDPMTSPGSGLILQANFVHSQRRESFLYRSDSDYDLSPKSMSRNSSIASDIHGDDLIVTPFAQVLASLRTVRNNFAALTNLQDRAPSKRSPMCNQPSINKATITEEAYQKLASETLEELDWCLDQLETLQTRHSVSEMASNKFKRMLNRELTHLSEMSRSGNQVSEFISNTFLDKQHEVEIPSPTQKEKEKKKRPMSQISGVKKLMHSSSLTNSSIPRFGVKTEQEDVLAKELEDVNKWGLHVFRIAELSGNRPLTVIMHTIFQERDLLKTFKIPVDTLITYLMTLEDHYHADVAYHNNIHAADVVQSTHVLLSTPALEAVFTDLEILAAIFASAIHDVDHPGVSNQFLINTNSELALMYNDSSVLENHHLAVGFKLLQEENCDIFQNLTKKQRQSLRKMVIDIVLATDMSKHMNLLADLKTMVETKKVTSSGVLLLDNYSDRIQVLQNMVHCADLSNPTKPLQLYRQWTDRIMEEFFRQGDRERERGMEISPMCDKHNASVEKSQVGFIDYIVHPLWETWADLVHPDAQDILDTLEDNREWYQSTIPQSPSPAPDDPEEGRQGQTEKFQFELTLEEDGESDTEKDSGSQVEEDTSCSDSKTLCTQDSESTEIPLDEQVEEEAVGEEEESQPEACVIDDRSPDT
T3 sequence (O95263 whole entry): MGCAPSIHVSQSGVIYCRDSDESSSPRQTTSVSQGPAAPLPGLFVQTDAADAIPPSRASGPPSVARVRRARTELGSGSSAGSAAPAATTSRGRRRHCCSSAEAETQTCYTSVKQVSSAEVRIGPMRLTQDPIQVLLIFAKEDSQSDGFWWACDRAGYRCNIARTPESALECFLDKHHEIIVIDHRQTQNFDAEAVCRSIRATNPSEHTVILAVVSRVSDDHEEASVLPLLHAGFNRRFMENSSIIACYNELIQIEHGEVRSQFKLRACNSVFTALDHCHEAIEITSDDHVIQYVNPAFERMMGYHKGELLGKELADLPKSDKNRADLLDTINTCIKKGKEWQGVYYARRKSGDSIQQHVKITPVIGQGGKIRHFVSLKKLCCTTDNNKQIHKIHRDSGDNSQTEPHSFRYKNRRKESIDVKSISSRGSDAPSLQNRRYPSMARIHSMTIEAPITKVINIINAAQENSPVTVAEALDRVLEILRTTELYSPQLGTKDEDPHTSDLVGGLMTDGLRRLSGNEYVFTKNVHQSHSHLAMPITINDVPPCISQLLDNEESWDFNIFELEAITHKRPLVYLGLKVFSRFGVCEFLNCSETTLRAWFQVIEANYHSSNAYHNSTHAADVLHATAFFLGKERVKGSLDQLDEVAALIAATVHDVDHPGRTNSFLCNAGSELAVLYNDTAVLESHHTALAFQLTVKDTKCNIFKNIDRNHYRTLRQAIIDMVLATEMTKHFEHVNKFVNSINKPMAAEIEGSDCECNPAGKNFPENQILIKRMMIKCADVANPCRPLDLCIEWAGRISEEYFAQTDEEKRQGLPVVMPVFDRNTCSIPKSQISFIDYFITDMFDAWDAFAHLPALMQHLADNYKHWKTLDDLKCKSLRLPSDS
T2 sequence (Q9NP56 whole entry): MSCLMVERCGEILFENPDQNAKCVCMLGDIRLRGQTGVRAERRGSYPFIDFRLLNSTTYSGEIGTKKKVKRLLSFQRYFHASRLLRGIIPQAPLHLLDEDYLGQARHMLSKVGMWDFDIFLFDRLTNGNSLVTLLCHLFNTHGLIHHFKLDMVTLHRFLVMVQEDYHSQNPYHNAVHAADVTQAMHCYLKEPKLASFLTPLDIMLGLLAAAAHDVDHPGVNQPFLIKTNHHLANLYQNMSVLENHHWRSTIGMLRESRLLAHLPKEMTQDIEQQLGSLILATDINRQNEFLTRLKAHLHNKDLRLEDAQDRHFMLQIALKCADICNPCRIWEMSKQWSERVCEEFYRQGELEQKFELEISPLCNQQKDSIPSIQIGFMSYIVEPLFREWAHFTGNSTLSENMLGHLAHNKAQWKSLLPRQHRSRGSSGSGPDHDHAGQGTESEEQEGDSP
hPDE10A, sequence (Q9Y233 290-1055 limits assumed): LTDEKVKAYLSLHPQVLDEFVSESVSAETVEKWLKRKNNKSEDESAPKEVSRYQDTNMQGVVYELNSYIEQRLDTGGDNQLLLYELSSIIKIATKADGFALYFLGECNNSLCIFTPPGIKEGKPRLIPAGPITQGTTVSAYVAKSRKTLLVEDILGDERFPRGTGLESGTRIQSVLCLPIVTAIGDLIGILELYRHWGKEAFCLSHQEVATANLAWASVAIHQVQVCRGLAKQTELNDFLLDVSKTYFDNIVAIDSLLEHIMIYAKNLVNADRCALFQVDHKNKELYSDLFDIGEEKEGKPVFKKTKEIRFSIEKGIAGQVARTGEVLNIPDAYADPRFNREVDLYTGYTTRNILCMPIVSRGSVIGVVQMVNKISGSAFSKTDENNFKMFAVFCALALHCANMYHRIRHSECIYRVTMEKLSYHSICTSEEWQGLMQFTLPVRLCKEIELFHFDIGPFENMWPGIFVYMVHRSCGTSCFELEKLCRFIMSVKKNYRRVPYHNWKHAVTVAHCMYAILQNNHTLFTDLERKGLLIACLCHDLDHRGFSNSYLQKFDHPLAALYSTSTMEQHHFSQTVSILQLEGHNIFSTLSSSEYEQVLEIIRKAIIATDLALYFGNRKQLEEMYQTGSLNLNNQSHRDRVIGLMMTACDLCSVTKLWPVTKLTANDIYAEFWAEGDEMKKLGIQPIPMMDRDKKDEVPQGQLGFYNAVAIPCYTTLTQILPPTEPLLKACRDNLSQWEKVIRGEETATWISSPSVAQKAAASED

IC50 [1] [µM]	IC50 [2] [µM]	IC50 [3] [nM]	IC50 [4] [µM]	inhibition at 10 µM [1] [%]	inhibition at 1 µM ([4]; at 1 μmol/L, read-out: inhibition rate (%) at prescribed concentration, PDE8) [%]	inhibition at 10 µM [2] [%]	inhibition at 100 µM [1] [%]	inhibition at 10 µM ([4]; at 10 μmol/L, read-out: inhibition rate (%) at prescribed concentration, PDE8) [%]	SMILES
	5.31	14	1.16	27					Nc1ncnc2c1nnn2C1CCCC(C(F)(F)F)C1 (single isomer, unassigned) [Example 202, 3-[cis-3-(trifluoromethyl)cyclohexyl]-3H-[1,2,3]triazolo[4,5-d]pyrimidin-7-amine]
	2.49	< 10	0.29	49					CC1CCCC(n2nnc3c(N)ncnc32)C1 (single isomer, unassigned) [Example 196, 3-(cis-3-methylcyclohexyl)-3H-[1,2,3]triazolo[4,5-d]pyrimidin-7-amine]
7.4	1.8	< 10			53				CC1(C)CCCN(c2nnc3c(N)ncc(C(F)(F)F)n23)C1 [Example 252, 3-(3,3-dimethylpiperidin-1-yl)-5-(trifluoromethyl) [1,2,4]triazolo[4,3-a]pyrazin-8-amine]
16.3	5.8	60	18.4						CC1CCN(c2nnc3c(N)nccn23)C(C)C1 (racemic) [Example 61, 3-(2,4-dimethylpiperidin-1-yl) [1,2,4]triazolo[4,3-a]pyrazin-8-amine]
8.7	6.4	50	9.9						CC1CCCN(c2nnc3c(N)nccn23)C1C (single isomer, unassigned) [Example 57, 3-(2,3-dimethylpiperidin-1-yl) [1,2,4]triazolo[4,3-a]pyrazin-8-amine]
4.8	3.6	10	2.1						CC1CCN(c2nnc3c(N)nccn23)CC1C (single isomer, unassigned) [Example 231, 3-(3,4-dimethylpiperidin-1-yl) [1,2,4]triazolo[4,3-a]pyrazin-8-amine]
17.7	5.45	13	3.93						Nc1nccn2c(C3CCCC(C(F)(F)F)C3)nnc12 (single isomer, unassigned) [Example 210, 3-[cis-3-(trifluoromethyl)cyclohexyl][1,2,4]triazolo[4,3-a]pyrazin-8-amine]
19.6	4	80	2.9						CC1CCN(c2nnc3c(N)nccn23)CC1C (single isomer, unassigned) [Example 230, 3-(3,4-dimethylpiperidin-1-yl) [1,2,4]triazolo[4,3-a]pyrazin-8-amine]
3	4.1	80	2.6						Nc1nccn2c(C3CCC4CC4C3)nnc12 (single isomer, unassigned) [Example 218, 3-(bicyclo[4.1.0]hept-3-yl) [1,2,4]triazolo[4,3-a]pyrazin-8-amine]
		460		7		-5		-1	Nc1cccn2c(C3CCCCC3)nnc12 [Example 186, 3-cyclohexyl[1,2,4]triazolo[4,3-a]pyridin-8-amine]

Further lines, the compound ahead of its results:

SMILES	IC50 [1] [µM]	IC50 [2] [µM]	IC50 [3] [nM]	IC50 [4] [µM]	inhibition at 10 µM [1] [%]	inhibition at 1 µM ([4]; at 1 μmol/L, read-out: inhibition rate (%) at prescribed concentration, PDE8) [%]	inhibition at 10 µM [2] [%]	inhibition at 100 µM [1] [%]	inhibition at 10 µM ([4]; at 10 μmol/L, read-out: inhibition rate (%) at prescribed concentration, PDE8) [%]
CC1CCC(C)(C)CN1c1nnc2c(N)nccn12 (single isomer, unassigned) [Example 236, 3-(2,5,5-trimethylpiperidin-1-yl) [1,2,4]triazolo[4,3-a]pyrazin-8-amine]	0.16	0.036	33	0.86					
CC1(C)CC(c2nnc3c(N)nccn23)CC(F)(F)C1 (single isomer, unassigned) [Example 177, 3-(3,3-difluoro-5,5-dimethylcyclohexyl) [1,2,4]triazolo[4,3-a]pyrazin-8-amine]	13.3	21	35	13.7					
CC1CC(c2nnc3c(N)nccn23)CC(F)(F)C1 (single isomer, unassigned) [Example 214]	15.7	6.4	60	17.1					
Nc1nccn2c(C3CCC4CC4C3)nnc12 (single isomer, unassigned) [Example 219, 3-(bicyclo[4.1.0]hept-3-yl) [1,2,4]triazolo[4,3-a]pyrazin-8-amine]	4.7	2.1	50	1.2					
CN1CCC[C@H](n2nnc3c(N)ncnc32)C1 [Example 135, 3-[(3S)-1-methylpiperidin-3-yl]-3H-[1,2,3]triazolo[4,5-d]pyrimidin-7-amine]			310	9.41	22		17		
Nc1ncnc2c(C3CCCCC3)noc12 [Example 188, 3-cyclohexylisoxazolo[4,5-d]pyrimidin-7-amine]			210	7.33	50		38		
Nc1ncnn2c(C3CCCC(C(F)(F)F)C3)nnc12 (single isomer, unassigned) [Example 75, 3-[cis-3-(trifluoromethyl)cyclohexyl][1,2,4]triazolo[3,4-f][1,2,4]triazin-8-amine]		27.1	53	4.33				44	
Nc1nccn2c(N3CCCCC3)nnc12 [Example 166]		3.87	160	8.89	39				
CC1CCC(C)N(c2nnc3c(N)nccn23)C1 (single isomer, unassigned) [Example 232, 3-(2,5-dimethylpiperidin-1-yl) [1,2,4]triazolo[4,3-a]pyrazin-8-amine]	0.35	1.4	3	4.6					
CC1(C)CCCN(c2nnc3c(N)ncc(C4CC4)n23)C1 [Example 43, 5-cyclopropyl-3-(3,3-dimethylpiperidin-1-yl) [1,2,4]triazolo[4,3-a]pyrazin-8-amine]	2.33	2.19	30	1.52					
Nc1nccn2c(C3CCCC3)nnc12 [Example 161]		5.5	110	1.77	27				
C[C@H]1CC[C@@H](n2nnc3c(N)ncnc32)CC1 [Example 99, 3-(cis-4-methylcyclohexyl)-3H-[1,2,3]triazolo[4,5-d]pyrimidin-7-amine]		1.6	20	0.12	38				
CC(C)(C)OC(=O)N1CCCCC1c1nnc2c(N)nccn12 (stereo not shown) [Example 32, tert-butyl 2-(8-amino-[1,2,4]triazolo[4,3-a]pyrazin-3-yl)piperidine-1-carboxylate]	22.6	5.78	80	2.27					
C[C@H]1C[C@H](n2nnc3c(N)ncnc32)CC(C)(C)C1 (racemic) [Example 109, 3-(trans-3,3,5-trimethylcyclohexyl)-3H-[1,2,3]triazolo[4,5-d]pyrimidin-7-amine]		99.2	40	12.9				24	
CC1CCC(F)(F)CC1c1nnc2c(N)nccn12 (single isomer, unassigned) [Example 175, 3-(cis-5,5-difluoro-2-methylcyclohexyl) [1,2,4]triazolo[4,3-a]pyrazin-8-amine]	1.9	14.9	< 10	19.5					
